Like-named read-outs stand apart in the source and are kept apart here.
What was measured:
[1] = test system: passive cutaneous anaphylaxis (PCA) reaction in rats; assay: Inhibition of PCA reaction in rats; format: in vivo, Wistar rats; conditions: Rattus norvegicus, po; for inhibition in vivo at 3 mg/kg / inhibition in vivo at 10 mg/kg: read-out: Inhibition of PCA in rat
Description: (§1) Antiserum was prepared according to the method described in J. Immunol., 106, 1002 (1971). The titer (or highest effective dilution which gave a mean 48 hours PCA response of 5 mm in diameter in a rat) of the antiserum used was 1:200.
Wistar rats were passively sensitized by intracutaneous injection of 0.05 ml antiserum diluted 75 times with physiological saline at two sheared sites of dorsal skin. After 48 hours, 0.5ml/animal of 1% Evans blue-physiological saline containing 2mg ovalbumin was administered into caudal vein to elicit the reaction. After 30 minutes, rats were sacrificed by decapitative bleeding and the dorsal skin was flayed. Dye stuff exuded at the reaction site was extracted according to the method described in Microbiol. Immunol., 22, 89 (1978). Briefly, two circular pieces of sensitized areas and one circular piece of unsensitized area (as the control) were punched at 1.8 cm diameter. The disks were placed in test tubes and treated overnight with 1 ml 1N-KOH at 37° C. Then 9ml 0.6N-H3 PO4 /acetone (5/13) was added and the mixture was thoroughly stirred and centrifuged (3000 rpm, 10 minutes). The supernatant was assayed for absorption at 620 nm. The amount of dye stuff was calculated from the standard curve previously prepared with known amounts of Evance blue. The conditions of sensitization and the amount of antigen were based on Nippon Yakurigaku Zasshi (Japanese Journal of Pharmacology),80, 261 (1982).
Test drugs and Oxatomide as a positive control were administered orally before 1 hour of elicitation through a gastric tube at 1 ml/200g body weight. In the test, groups of 6 to 7 animals and groups of 8 to 9 animals were used for test drugs and control, respectively.

[2] = test system: experimental asthma in rats; assay: Inhibition of experimental asthma in rats; format: in vivo, Wistar rats; conditions: Rattus norvegicus, po; for inhibition in vivo at 1 mg/kg: other dosage/kg: 1 mg; for inhibition in vivo at 0.1 mg/kg: other dosage/kg: 0.1 mg; for inhibition in vivo at 0.3 mg/kg: other dosage/kg: 0.3 mg
Description: as §1
Wistar rats were passively sensitized by injection into caudal vein of 2.0ml/animal antiserum. After 24 hours, anaphylactic airway contraction caused by administration of antigen was measured by a modified Konzett and Roessler method. Briefly, the animal was fixed at dorsal position under urethane (1.5 g/kg, i.p.) anesthetization and connected with a respirator (Harvard Model 683, respiratory volume: 3-5 ml/respiration; respiratory rate: 72/minute) via an incised tracheal cannula. […] Oxatomide was administered two hours before the test, which is the optimal conditions according to Nippon Yakurigaku Zasshi (Japanese Journal of Pharmacology), 80, 261 (1982), and the other test drugs were orally administered at a rate of 0.2 ml/100 g body weight one hour before the test using a gastric tube. At the end of measurement, the trachea was blocked with a Kocher clamp and the measured values were expressed in percent taking the value at blockage as the maximum contraction (100%).

[3] = read-out: Inhibition of Experimental Asthma in rat
[4] = 10 mg/kg, read-out: Inhibition of Experimental Asthma in rat

Row | SMILES | inhibition in vivo at 10 mg/kg ([1]; 10 mg/kg) | inhibition in vivo at 10 mg/kg [2, 4] | further results
1 | O=c1cc(CN2CCC(c3c[nH]c4ccccc34)CC2)c2ccccc2[nH]1 [III-1, 4-[[4-(1H-indol-3-yl)-l-piperidinyl]methyl]-2(1H)-quinolinone] |  |  | inhibition in vivo at 3 mg/kg [1]: 58.8%; inhibition in vivo at 10 mg/kg [1]: 73.1%; inhibition in vivo at 10 mg/kg [2, 3]: 14.6%; inhibition in vivo at 30 mg/kg [2, 3]: 14.3%
2 | O=c1cc(CCCN2CCC(c3c[nH]c4ccccc34)CC2)c2ccccc2[nH]1 [III-3, 4-[3-[4-(1H-indol-3-yl)-1-piperidinyl]propyl]-2(1H)-quinolinone] | 69.1% | 85% | inhibition in vivo at 1 mg/kg ([1]; other dosage/kg: 1 mg): 21.3%; inhibition in vivo at 3 mg/kg ([1]; other dosage/kg: 3 mg): 25.8%; inhibition in vivo at 30 mg/kg ([1]; other dosage/kg: 30 mg): 96.1%; inhibition in vivo at 1 mg/kg [2]: 25.4%; inhibition in vivo at 3 mg/kg ([2]; other dosage/kg: 3 mg): 88.7%
3 | O=c1cc(CCCCN2CCC(c3c[nH]c4ccccc34)CC2)c2ccccc2[nH]1 [III-4, 4-[4-[4-(1H-indol-3-yl)-1-piperidinyl]butyl]-2(1H)-quinolinone] | 12.8% | 28.7% | 
4 | O=c1cc(CCCCCN2CCC(c3c[nH]c4ccccc34)CC2)c2ccccc2[nH]1 [III-5, 4-[5-[4-(1H-indol-3-yl)-1-piperidinyl]pentyl]-2(1H)-quinolinone] | 66.5% | 8.87% | 
5 | O=c1cc(CN2CCN(C(c3ccccc3)c3ccccc3)CC2)c2ccccc2[nH]1 [III-6, 4-[[4-(diphenylmethyl)-1-piperazinyl]methyl]-2(1H)-quinolinone] | 9.7% | 57.2% | 
6 | O=c1cc(CCN2CCN(C(c3ccccc3)c3ccccc3)CC2)c2ccccc2[nH]1 [III-7, 4-[2-[4-(diphenylmethyl)-1-piperazinyl]ethyl]-2(1H)-quinolinone] | 57.8% | 63.6% | 
7 | O=c1cc(CCCN2CCN(C(c3ccccc3)c3ccccc3)CC2)c2ccccc2[nH]1 [III-8, 4-[3-[4-(diphenylmethyl)-1-piperazinyl]propyl]-2(1H)-quinolinone] | 73.9% | 17.1% | 
8 | O=c1cc(CCN2CCN(C(c3ccccc3)c3ccc(Cl)cc3)CC2)c2ccccc2[nH]1 (centres unmarked) [III-9] | 8.9% | 34.6% | 
9 | O=c1cc(CCN2CCC(OC(c3ccccc3)c3ccccc3)CC2)c2ccccc2[nH]1 [III-11, 4-[2-[4-(diphenylmethoxy)-1-piperidinyl]ethyl]-2(1H)-quinolinone] | 63.6% | 35.6% | 
10 | O=c1cc(CCCN2CCC(OC(c3ccccc3)c3ccccc3)CC2)c2ccccc2[nH]1 [III-12, 4-[3-[4-(diphenylmethoxy)-1-piperidinyl]propyl]-2(1H)-quinolinone] | 73.6% | 12.1% | 
11 | O=C1Cc2ccccc2C(=C2CCN(Cc3cc(=O)[nH]c4ccccc34)CC2)c2ccsc21 [III-13, 4,9-dihydro-4-[1-[(1,2-dihydro-2-oxo-4-quinolyl)methyl]-4-piperidinylidene]-10H-benzo[4, 5]cyclohepta[1,2-b]thiophen-10-one] | 24.2% | 42.9% | 
12 | O=C1Cc2ccccc2C(=C2CCN(CCc3cc(=O)[nH]c4ccccc34)CC2)c2ccsc21 [III-14, 4,9-dihydro-4-[1-[2-(1,2-dihydro-2-oxo-4-quinolyl)ethyl]-4-piperidinylidene]-10H-benzo[4, 5]cyclohepta[1,2-b]thiophen-10-one] | 23.1% | 44.8% | 
13 | O=C1Cc2ccccc2C(=C2CCN(CCCc3cc(=O)[nH]c4ccccc34)CC2)c2ccsc21 [III-15, 4,9-dihydro-4-[1-[3-(1,2-dihydro-2-oxo-4-quinolyl)propyl]-4-piperidinylidene]-10H-benzo[4, 5]cyclohepta[1,2-b]thiophen-10-one] | 49.9% | 37.5% | 
14 | Cn1c(=O)cc(CN2CCC(c3c[nH]c4ccccc34)CC2)c2ccccc21 [III-16, 4-[[4-(1H-indol-3-yl)-l-piperidinyl]methyl]-1-methyl-2(1H)-quinolinone] |  |  | inhibition in vivo at 10 mg/kg [1]: 45.6%; inhibition in vivo at 10 mg/kg [2, 3]: 2.57%
15 | Cn1c(=O)cc(CCN2CCC(c3c[nH]c4ccccc34)CC2)c2ccccc21 [III-17, 4-[2-[4-(1H-indol-3-yl)-1-piperidinyl]ethyl]-1-methyl-2(1H)-quinolinone] | 42.5% | 86.5% | inhibition in vivo at 0.1 mg/kg [2]: 96.2%; inhibition in vivo at 0.3 mg/kg [2]: 80.9%; inhibition in vivo at 1 mg/kg [2]: 88.1%
16 | O=c1cc(CCN2CCC(c3c[nH]c4ccccc34)CC2)c2ccc(Br)cc2[nH]1 [III-18, 7-bromo-4-[2-[4-(1H-indol-3-yl)-1-piperidinyl]ethyl]-2(1H)-quinolinone] | 45.2% | 84.2% | inhibition in vivo at 1 mg/kg [2]: 62.6%
17 | O=c1cc(CCN2CCC(c3c[nH]c4ccccc34)CC2)c2cc([N+](=O)[O-])ccc2[nH]1 [III-19, 4-[2-[4-(1H-indol-3-yl)-1-piperidinyl]ethyl]-6-nitro-2(1H)-quinolinone] | 20.3% | 88.5% | 
18 | Nc1ccc2[nH]c(=O)cc(CCN3CCC(c4c[nH]c5ccccc45)CC3)c2c1 [III-20, 6-amino-4-[2-[4-(1H-indol-3-yl)-1-piperidinyl]ethyl]-2(1H)-quinolinone] | 18.5% | 89.2% | 
19 | Cc1ccc2[nH]c(=O)cc(CCN3CCC(c4c[nH]c5ccccc45)CC3)c2c1 [III-23, 4-[2-[4-(1H-indol-3-yl)-1-piperidinyl]ethyl]-6-methyl-2(1H)-quinolinone] | 62% | 95.5% | inhibition in vivo at 0.1 mg/kg [2]: 48.5%; inhibition in vivo at 0.3 mg/kg [2]: 84%; inhibition in vivo at 1 mg/kg [2]: 95%
20 | Cc1cccc2c(CCN3CCC(c4c[nH]c5ccccc45)CC3)cc(=O)[nH]c12 [III-24, 4-[2-[4-(1H-indol-3-yl)-1-piperidinyl]ethyl]-8-methyl-2-(1H)-quinolinone] | 102% | 73.8% | inhibition in vivo at 1 mg/kg [2]: 95.7%
21 | Cc1ccc2c(CCN3CCC(c4c[nH]c5ccccc45)CC3)cc(=O)[nH]c2c1 [III-25, 4-[2-[4-(1H-indol-3-yl)-1-piperidinyl]ethyl]-7-methyl-2-(1H)-quinolinone] | 29.4% | 68.6% | 
22 | Cc1cc(C)c2c(CCN3CCC(c4c[nH]c5ccccc45)CC3)cc(=O)[nH]c2c1 [III-27, 5,7-dimethyl-4-[2-[4-(1H-indol-3-yl)-1-piperidinyl]ethyl]-2(1H)-quinolinone] | 70.9% | 65.8% | 
23 | O=C1CC(CCN2CCC(c3c[nH]c4ccccc34)CC2)c2ccccc2N1 (centres unmarked) [IV-1, 3,4-dihydro-4-[2-[4-(1H-indol-3-yl)-1-piperidinyl]ethyl]-2(1H)-quinolinone] | 95.9% | 80.1% | inhibition in vivo at 3 mg/kg ([1]; other dosage/kg: 3 mg): 65.9%; inhibition in vivo at 1 mg/kg [2]: 26.4%
24 | O=c1ccc2cc(Cl)ccc2n1CCCN1CCC(c2c[nH]c3ccccc23)CC1 [VII-1, 1-[3-[4-(1H-indol-3-yl)-piperidinyl]propyl]-6-chloro-2-(1H)-quinolinone] | 12.1% | 40.3% | 
25 | Cc1ccc2c(ccc(=O)n2CCCN2CCC(c3c[nH]c4ccccc34)CC2)c1 [VII-2, 1-[3-[4-(1H-indol-3-yl)-1-piperidinyl]propyl]-6-methyl-2(1H)-quinolinone] | 41.9% | 24.3% | 
26 | O=c1ccc2ccccc2n1CCCN1CCC(c2c[nH]c3ccccc23)CC1 [VII-3, 1-[3-[4-(1H-indol-3-yl)-1-piperidinyl]propyl]-2(1H)-quinolinone] | 27.2% | 76.7% | 
27 | Cc1cc(=O)n(CCCN2CCC(c3c[nH]c4ccccc34)CC2)c2ccccc12 [VII-4, 1-[3-[4-(1H-indol-3-yl)-1-piperidinyl]propyl]-4-methyl-2-(1H)-quinolinone] | 89.2% | 10.8% | 

Reference: patent US5457099A, “Carbostyril derivatives and antiallergic agent” (Sawai Pharmaceutical Co., Ltd., priority 1992, dated 1995)
